Measurements published in US4921850A, “3-propenylcephem derivative” (Eisai Co., Ltd., priority 1986, dated 1990).
In brackets after ≈: the same amount, converted by molar mass. Like-named read-outs stand apart in the source and are kept apart here.

Assays:
Experiment in all cases: Anti-bacterial activity (MIC), agar dilution
Format in all cases: cell-based
Ser. marcescens ES-75 = conditions: Serratia marcescens, ES75, 18 h
Protocol: (§1) MIC (μg/ml) were determined by an agar dilution method [Chemotherapy (Japan), 29, 76-79, 1981]. Overnight cultures of the bacterial strains in Mueller-Hinton broth were diluted to final concentration of about 10^6 CFU/ml, and 5 μl of each bacterial suspension was spotted onto Mueller-Hinton agar plates that contained twofold serial dilutions of antibiotics. MICs were measured after incubation for 18 hours at 37° C.

Pseud. aeruginosa EP-01 = conditions: Pseudomonas aeruginosa, EP01, 18 h, Pseud. aeruginosa EP-01; agar dilution, about 10^6 CFU/ml, 18 hours, 37° C.; read-out: MIC
Protocol: as §1

Escher. coli NIHJ = conditions: Escherichia coli, 18 h, Escher. coli NIHJ; agar dilution, about 10^6 CFU/ml, 18 hours, 37° C.; read-out: MIC
Protocol: as §1

Staph. aureus 209-P = conditions: Staphylococcus aureus, 209P, 18 h, Staph. aureus 209-P; agar dilution, about 10^6 CFU/ml, 18 hours, 37° C.; read-out: MIC
Protocol: as §1

Kleb. pneumoniae EK-6 = conditions: Klebsiella pneumoniae, EK6, 18 h, Kleb. pneumoniae EK-6; agar dilution, about 10^6 CFU/ml, 18 hours, 37° C.; read-out: MIC
Protocol: as §1

[1] = system: Morganella morganii EP-14; conditions: Morganella morganii, EP14, 18 h, about 10^6 CFU/ml, 37° C., read-out: MIC
Protocol: as §1

[2] = Ser. marcescens ES-75, agar dilution, about 10^6 CFU/ml, 18 hours, 37° C., read-out: MIC

| SMILES | MIC (Ser. marcescens ES-75) | MIC (Pseud. aeruginosa EP-01) | MIC (Escher. coli NIHJ) | MIC (Staph. aureus 209-P) | MIC (Kleb. pneumoniae EK-6) | MIC [1] | MIC (Ser. marcescens ES-75; [2]) |
| --- | --- | --- | --- | --- | --- | --- | --- |
| NC(=O)C[N+]1(C/C=C/C2=C(C(=O)[O-])N3C(=O)[C@@H](NC(=O)/C(=N\OCF)c4nsc(N)n4)[C@H]3SC2)CCCC1 [Example 19] | 0.5 µg/mL (≈ 0.879 µM) | 0.8 µg/mL (≈ 1.41 µM) | ≤ 0.025 µg/mL | 0.2 µg/mL (≈ 0.352 µM) | ≤ 0.025 µg/mL | ≤ 0.025 µg/mL |  |
| Nc1nc(/C(=N/OCF)C(=O)N[C@@H]2C(=O)N3C(C(=O)[O-])=C(/C=C/C[N+]4(CCO)CCCC4)CS[C@H]23)ns1 [Example 20] |  | 1.56 µg/mL (≈ 2.81 µM) | ≤ 0.025 µg/mL | 0.2 µg/mL (≈ 0.36 µM) | ≤ 0.025 µg/mL | ≤ 0.025 µg/mL | 0.05 µg/mL (≈ 0.09 µM) |
| NCC[N+]1(C/C=C/C2=C(C(=O)[O-])N3C(=O)[C@@H](NC(=O)/C(=N\OCF)c4nsc(N)n4)[C@H]3SC2)CCCC1 [Example 22] |  | 3.13 µg/mL (≈ 5.64 µM) | 0.05 µg/mL (≈ 0.0902 µM) | 0.2 µg/mL (≈ 0.361 µM) | 0.05 µg/mL (≈ 0.0902 µM) | 0.05 µg/mL (≈ 0.0902 µM) | 0.2 µg/mL (≈ 0.361 µM) |
| C[N+]1(C/C=C/C2=C(C(=O)[O-])N3C(=O)[C@@H](NC(=O)/C(=N\OCF)c4nsc(N)n4)[C@H]3SC2)CCN(C=O)CC1 [Example 24] |  | 1.56 µg/mL (≈ 2.74 µM) | ≤ 0.025 µg/mL | 0.2 µg/mL (≈ 0.352 µM) | ≤ 0.025 µg/mL | ≤ 0.025 µg/mL | ≤ 0.025 µg/mL |
| CC(=N)N1CC[N+](C)(C/C=C/C2=C(C(=O)[O-])N3C(=O)[C@@H](NC(=O)/C(=N\OCF)c4nsc(N)n4)[C@H]3SC2)CC1 [Example 26] |  | 0.8 µg/mL (≈ 1.38 µM) | 0.1 µg/mL (≈ 0.172 µM) | 0.2 µg/mL (≈ 0.344 µM) | 0.1 µg/mL (≈ 0.172 µM) | 0.1 µg/mL (≈ 0.172 µM) | 0.4 µg/mL (≈ 0.688 µM) |
| Nc1nc(/C(=N/OCF)C(=O)N[C@@H]2C(=O)N3C(C(=O)[O-])=C(/C=C/C[N+]4(CCO)CCN(CCO)CC4)CS[C@H]23)ns1 [Example 27] |  | 1.56 µg/mL (≈ 2.54 µM) | 0.05 µg/mL (≈ 0.0813 µM) | 0.4 µg/mL (≈ 0.651 µM) | ≤ 0.025 µg/mL | 0.05 µg/mL (≈ 0.0813 µM) | 0.1 µg/mL (≈ 0.163 µM) |
| NC(=O)N1CC[N+](C/C=C/C2=C(C(=O)[O-])N3C(=O)[C@@H](NC(=O)/C(=N\OCF)c4nsc(N)n4)[C@H]3SC2)(CCO)CC1 [Example 28] |  | 1.56 µg/mL (≈ 2.54 µM) | 0.05 µg/mL (≈ 0.0815 µM) | 0.4 µg/mL (≈ 0.652 µM) | 0.05 µg/mL (≈ 0.0815 µM) | 0.05 µg/mL (≈ 0.0815 µM) | 0.2 µg/mL (≈ 0.326 µM) |
| Nc1nc(/C(=N/OCF)C(=O)N[C@@H]2C(=O)N3C(C(=O)[O-])=C(/C=C/C[N+]4(CCO)CCN(S(N)(=O)=O)CC4)CS[C@H]23)ns1 [Example 29] |  | 0.8 µg/mL (≈ 1.23 µM) | ≤ 0.025 µg/mL | 0.4 µg/mL (≈ 0.616 µM) | ≤ 0.025 µg/mL | ≤ 0.025 µg/mL | 0.1 µg/mL (≈ 0.154 µM) |
| NC(=O)N1CC[N+](C/C=C/C2=C(C(=O)[O-])N3C(=O)[C@@H](NC(=O)/C(=N\OCF)c4nsc(N)n4)[C@H]3SC2)(CC(O)CO)CC1 (stereo partly drawn) [Example 30] |  | 1.56 µg/mL (≈ 2.42 µM) | 0.05 µg/mL (≈ 0.0777 µM) | 0.4 µg/mL (≈ 0.621 µM) | 0.05 µg/mL (≈ 0.0777 µM) | 0.05 µg/mL (≈ 0.0777 µM) | 0.2 µg/mL (≈ 0.311 µM) |
| NC(=O)C[N+]1(C/C=C/C2=C(C(=O)[O-])N3C(=O)[C@@H](NC(=O)/C(=N\OCF)c4nsc(N)n4)[C@H]3SC2)CCN(C(N)=O)CC1 [Example 31] |  | 1.56 µg/mL (≈ 2.49 µM) | 0.05 µg/mL (≈ 0.0798 µM) | 0.4 µg/mL (≈ 0.638 µM) | ≤ 0.025 µg/mL | ≤ 0.025 µg/mL | 0.1 µg/mL (≈ 0.16 µM) |
| NC(=O)NCC[N+]1(C/C=C/C2=C(C(=O)[O-])N3C(=O)[C@@H](NC(=O)/C(=N\OCF)c4nsc(N)n4)[C@H]3SC2)CCN(C(N)=O)CC1 [Example 32] |  | 1.56 µg/mL (≈ 2.38 µM) | ≤ 0.025 µg/mL | 0.2 µg/mL (≈ 0.305 µM) | ≤ 0.025 µg/mL | ≤ 0.025 µg/mL | 0.05 µg/mL (≈ 0.0763 µM) |
| NC(=O)C[N+]1(C/C=C/C2=C(C(=O)[O-])N3C(=O)[C@@H](NC(=O)/C(=N\OCF)c4nsc(N)n4)[C@H]3SC2)CCOCC1 [Example 35] |  | 0.8 µg/mL (≈ 1.37 µM) | 0.05 µg/mL (≈ 0.0855 µM) | 0.4 µg/mL (≈ 0.684 µM) | ≤ 0.025 µg/mL | 0.05 µg/mL (≈ 0.0855 µM) | 0.1 µg/mL (≈ 0.171 µM) |
| NC(=O)NCC[N+]1(C/C=C/C2=C(C(=O)[O-])N3C(=O)[C@@H](NC(=O)/C(=N\OCF)c4nsc(N)n4)[C@H]3SC2)CCOCC1 [Example 36] |  | 1.56 µg/mL (≈ 2.54 µM) | 0.05 µg/mL (≈ 0.0815 µM) | 0.2 µg/mL (≈ 0.326 µM) | ≤ 0.025 µg/mL | 0.05 µg/mL (≈ 0.0815 µM) | 0.1 µg/mL (≈ 0.163 µM) |
| Nc1nc(/C(=N/OCF)C(=O)N[C@@H]2C(=O)N3C(C(=O)[O-])=C(/C=C/C[N+]4(CCO)CCOCC4)CS[C@H]23)ns1 [Example 37] |  | 1.56 µg/mL (≈ 2.73 µM) | 0.05 µg/mL (≈ 0.0875 µM) | 0.2 µg/mL (≈ 0.35 µM) | ≤ 0.025 µg/mL | 0.05 µg/mL (≈ 0.0875 µM) | 0.1 µg/mL (≈ 0.175 µM) |
| Nc1nc(/C(=N/OCF)C(=O)N[C@@H]2C(=O)N3C(C(=O)[O-])=C(/C=C/C[N+]4(CC(O)CO)CCOCC4)CS[C@H]23)ns1 (stereo partly drawn) [Example 38] |  | 1.56 µg/mL (≈ 2.59 µM) | 0.1 µg/mL (≈ 0.166 µM) | 0.4 µg/mL (≈ 0.665 µM) | 0.05 µg/mL (≈ 0.0831 µM) | 0.1 µg/mL (≈ 0.166 µM) | 0.2 µg/mL (≈ 0.332 µM) |
| CC(O)C[N+]1(C/C=C/C2=C(C(=O)[O-])N3C(=O)[C@@H](NC(=O)/C(=N\OCF)c4nsc(N)n4)[C@H]3SC2)CCOCC1 (stereo partly drawn) [Example 39] |  | 1.56 µg/mL (≈ 2.66 µM) | 0.05 µg/mL (≈ 0.0854 µM) | 0.2 µg/mL (≈ 0.342 µM) | ≤ 0.025 µg/mL | 0.05 µg/mL (≈ 0.0854 µM) | 0.1 µg/mL (≈ 0.171 µM) |
| NC(=O)C[N+]1(C/C=C/C2=C(C(=O)[O-])N3C(=O)[C@@H](NC(=O)/C(=N\OCF)c4nsc(N)n4)[C@H]3SC2)CCC(C(N)=O)CC1 (stereo partly drawn) [Example 40] |  | 0.8 µg/mL (≈ 1.28 µM) | ≤ 0.025 µg/mL | 0.4 µg/mL (≈ 0.639 µM) | ≤ 0.025 µg/mL | ≤ 0.025 µg/mL | ≤ 0.025 µg/mL |
| Nc1nc(/C(=N/OCF)C(=O)N[C@@H]2C(=O)N3C(C(=O)[O-])=C(/C=C/C[N+]4(CCO)CC=C(C=NO)CC4)CS[C@H]23)ns1 (stereo partly drawn) [Example 42] |  | 1.56 µg/mL (≈ 2.55 µM) | ≤ 0.025 µg/mL | 0.2 µg/mL (≈ 0.328 µM) | 0.05 µg/mL (≈ 0.0819 µM) | ≤ 0.025 µg/mL | ≤ 0.025 µg/mL |
| NC(=O)C1=CC[N+](C/C=C/C2=C(C(=O)[O-])N3C(=O)[C@@H](NC(=O)/C(=N\OCF)c4nsc(N)n4)[C@H]3SC2)(CCO)CC1 (stereo partly drawn) [Example 43] |  | 0.8 µg/mL (≈ 1.31 µM) | ≤ 0.025 µg/mL | 0.2 µg/mL (≈ 0.328 µM) | ≤ 0.025 µg/mL | ≤ 0.025 µg/mL | ≤ 0.025 µg/mL |
